Experimental data reported in patent US20250171417A1, “HETEROCYCLIC DERIVATIVE, AND COMPOSITION AND PHARMACEUTICAL USE THEREOF” (Xizang Haisco Pharmaceutical Co., Ltd., priority 2021, published 2025).

Assays:
[1] = target: T1, AR splice variant 7 (AR-V7) (Homo sapiens, UniProt P10275); test: Degradation experiment on AR splice variant 7 (AR-V7) in 22RV1 cells; format: cell-based; conditions: 24 h
T1 construct: host or cells: 22RV1 prostate cancer cells
T1 sequence (P10275 1-644 isoform P10275-3): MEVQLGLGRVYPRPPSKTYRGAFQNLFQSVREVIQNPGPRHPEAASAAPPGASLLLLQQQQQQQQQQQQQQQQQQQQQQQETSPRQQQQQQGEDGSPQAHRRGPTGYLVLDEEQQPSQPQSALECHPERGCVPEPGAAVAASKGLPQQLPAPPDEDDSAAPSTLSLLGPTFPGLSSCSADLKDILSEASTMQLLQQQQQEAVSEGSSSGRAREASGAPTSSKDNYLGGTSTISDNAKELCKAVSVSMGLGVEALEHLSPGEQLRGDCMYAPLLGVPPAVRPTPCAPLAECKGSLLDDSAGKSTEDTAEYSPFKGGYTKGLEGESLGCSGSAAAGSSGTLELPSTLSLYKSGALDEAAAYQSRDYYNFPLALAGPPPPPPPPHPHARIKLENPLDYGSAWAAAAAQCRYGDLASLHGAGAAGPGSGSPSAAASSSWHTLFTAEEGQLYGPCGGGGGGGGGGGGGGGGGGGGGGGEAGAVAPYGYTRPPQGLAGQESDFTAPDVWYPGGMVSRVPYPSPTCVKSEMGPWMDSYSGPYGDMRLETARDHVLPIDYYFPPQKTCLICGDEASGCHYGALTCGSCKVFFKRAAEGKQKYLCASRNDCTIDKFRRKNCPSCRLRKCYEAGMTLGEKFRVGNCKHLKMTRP
Protocol: Prostate cancer cells 22RV1 were purchased from ATCC, the cell medium was 1640+10% FBS, and the cells were cultured in an incubator at 37° C. under 5% CO2. On day 1, the cells in an exponential phase were collected. With a 1% css-FBS phenol red-free medium, the cell suspension was adjusted to a corresponding concentration and plated into a 6-well plate at 1 mL/well and 300000 cells/well. The next day, a 1% css-FBS phenol-free medium containing the compound to be tested was added, a 1% css-FBS phenol-free medium containing 0.2% DMSO was added to one well as DMSO vehicle control, and the 6-well plate was cultured in an incubator at 37° C. under 5% CO2. After 24 h, the cells were digested with pancreatin and collected into a 1.5 mL centrifuge tube. 15 μL of RIPA lysate (containing 1× protease inhibitor cocktail) was added to each well, and the cells were lysed on ice for 15 min and then centrifuged at 12000 g at 4° C.′ for 10 min. The supernatant protein samples were collected, and protein quantification was performed by a BCA method. AR-V7 was detected using fully automatic protein expression quantitative analysis, which involved diluting the protein to be tested to 2 mg/mL, 4 μL of the diluted protein samples were added to 1 μL of 5× Master Mix (provided in the kit), and the prepared samples were denatured at 95° C. for 5 min and placed on ice for use. The primary antibodies. AR V7 (CST, 19672S) and β-actin (CST, 3700), were diluted with Antibody Diluent II (provided in the kit) at a dilution ratio of 1:10 and 1:500, respectively. The secondary antibody was a mixed goat anti-mouse and goat anti-rabbit secondary antibody in a ratio of 1:1, and the color development solution was a mixed solution of Lumino-S and Peroxide in a ratio of 1:1. The prepared reagents were successively added to an assay plate according to instructions of the kit and detected on an instrument. Western blot band processing was performed using “Compass for SW”, a fully automatic protein expression quantitative analysis software, in which western blot bands were automatically simulated based on signal values. The degradation rate of AR-V7 (4) relative to vehicle control at different compound concentrations was calculated according to formula (4), wherein AR-V7compound was the relative peak area of AR-V7 in the treated group, and AR-V7solvent was the relative peak area of AR-V7 in the vehicle control group.
DC50 calculation: the compound concentration DC50 values at which the degradation rate of AR-V7 was 50% were calculated using Graphpad software and analyzed using log (inhibitor) vs. response-Variable slope (four parameters) function according to formula (4).

[2] = tested on: Prostate cancer cells 22RV1; test: Experiment on inhibiting 22RV1 cell proliferation (CellTiter-Glo, 7 days); format: cell-based; conditions: Homo sapiens, 168 h, 22RV1 cells, 7 days incubation, cells with nM printed beside the value, read-out: IC50 values for inhibition of 22RVI cells
How it was run: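 22RV1 cells at 2000/well in 1% charcoal-stripped-FBS phenol red-free medium, treated next day with compound for 7 days at 37 °C, 5% CO2. Viability by CellTiter-Glo luminescence; inhibition relative to DMSO vehicle, IC50 from dose-response fit.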

[3] = Pharmacokinetic test in rats; format: in vivo; conditions: rat, plasma, po, male SD rats; for bioavailability: i.g. 5 mg/kg vs intravenous 2 mg/kg; for AUC(0-t): i.g. 5 mg/kg
Protocol: Test objective: In this experiment, a single dose of each test compound was administered to SD rats intravenously and intragastrically, and the concentrations of the test compounds in plasma of rats were measured to evaluate the pharmacokinetic characteristics of the test compounds in rats.
Experimental animals: male SD rats, 200-250 g, 6-8 weeks old, 6 rats/compound, purchased from Chengdu Ddossy Experimental Animals Co., Ltd.
Experimental method: on the day of the test, 6 SD rats were randomly grouped according to their body weight; the animals were fasted with water available for 12 to 14 hours one day before the administration of a test compound, and were fed 4 hours after the administration.
Sampling: Before and after the administration, 0.1 mL of blood samples were drawn from the orbits of the animals under isoflurane anesthesia, and placed in an EDTAK2 centrifuge tube. Centrifugation was carried out at 5000 rpm at 4° C. for 10 min, and the plasma was collected.
Time points for plasma collection in IV&PO group: 0, 5 min, 15 min, 30 min, 1 h, 2 h, 4 h, 6 h, 8 h, and 24 h.
Before analysis and detection, all samples were stored at −60° C. The samples were analyzed quantitatively by LC-MS/MS.

Row | SMILES | DC50 [1] | IC50 [2] | bioavailability [3] | AUC(0-t) [3]
1 | O=C1CCC(N2C(=O)c3ccc(N4CC(C#Cc5cnn(C6(C(=O)Nc7ccc(C(F)(F)F)cc7Cl)CCC6)c5)C4)cc3C2=O)C(=O)N1 (stereo not drawn) [Compound 14, N-(2-chloro-4-(trifluoromethyl)phenyl)-1-(4-((1-(2-(2,6-dioxopiperidin-3-yl)-1,3-dioxoisoindolin-5-yl)azetidin-3-yl)ethynyl)-1H-pyrazol-1-yl)cyclobutane-1-carboxamide] | < 500 nM | < 50 nM |  | 
2 | CC(C)(C(=O)Nc1ccc(C(F)(F)F)cc1Cl)n1cc(C#CC2CN(c3cc4c(cc3F)C(=O)N(C3CCC(=O)NC3=O)C4=O)C2)cn1 (stereo not drawn) [Compound 15] | < 500 nM | < 100 nM | 73.2 ± 10% | 10200 ± 1460 ng·h/mL
3 | CC(C)(C(=O)Nc1ccc(C#N)c2ccccc12)n1cc(C#CC2CN(c3ccc4c(c3)C(=O)N(C3CCC(=O)NC3=O)C4=O)C2)cn1 (stereo not drawn) [Compound 21, N-(4-cyanonaphthalen-1-yl)-2-(4-((1-(2-(2,6-dioxopiperidin-3-yl)-1,3-dioxoisoindolin-5-yl)azetidin-3-yl)ethynyl)-1H-pyrazol-1-yl)-2-methylpropanamide] | < 500 nM | < 50 nM | 69.1 ± 12% | 15200 ± 2610 ng·h/mL
4 | CC(C)(C(=O)Nc1ccc(C#N)c(C2CC2)c1)n1cc(C#CC2CN(c3ccc4c(c3)C(=O)N(C3CCC(=O)NC3=O)C4=O)C2)cn1 (stereo not drawn) [Compound 29, N-(4-cyano-3-cyclopropylphenyl)-2-(4-((1-(2-(2,6-dioxopiperidin-3-yl)-1,3-dioxoisoindolin-5-yl)azetidin-3-yl)ethynyl)-1H-pyrazol-1-yl)-2-methylpropanamide] | < 500 nM | < 100 nM |  | 48700 ± 7060 ng·h/mL
5 | CC(C)(C(=O)Nc1ccc(C#N)cc1C1CC1)n1cc(C#CC2CN(c3ccc4c(c3)C(=O)N(C3CCC(=O)NC3=O)C4=O)C2)cn1 (stereo not drawn) [Compound 39, N-(4-cyano-2-cyclopropylphenyl)-2-(4-((1-(2-(2,6-dioxopiperidin-3-yl)-1,3-dioxoisoindolin-5-yl)azetidin-3-yl)ethynyl)-1H-pyrazol-1-yl)-2-methylpropanamide] | < 500 nM | < 50 nM |  | 
6 | N#Cc1nn(C2(C(=O)Nc3ccc(C(F)(F)F)cc3Cl)CCC2)cc1C#CC1CN(c2ccc3c(c2)C(=O)N(C2CCC(=O)NC2=O)C3=O)C1 (stereo not drawn) [Compound 160, N-(2-chloro-4-(trifluoromethyl)phenyl)-1-(3-cyano-4-((1-(2-(2,6-dioxopiperidin-3-yl)-1,3-dioxoisoindolin-5-yl)azetidin-3-yl)ethynyl)-1H-pyrazol-1-yl)cyclobutane-1-carboxamide] | < 500 nM | < 50 nM |  | 
7 | Cc1nn(C2(C(=O)Nc3ccc(C(F)(F)F)cc3Cl)CCC2)cc1C#CC1CN(c2ccc3c(c2)C(=O)N(C2CCC(=O)NC2=O)C3=O)C1 (stereo not drawn) [Compound 164, N-(2-chloro-4-(trifluoromethyl)phenyl)-1-(4-((1-(2-(2,6-dioxopiperidin-3-yl)-1,3-dioxoisoindolin-5-yl)azetidin-3-yl)ethynyl)-3-methyl-1H-pyrazol-1-yl)cyclobutane-1-carboxamide] | < 500 nM | < 50 nM |  | 

Continued, values first:

Row | DC50 [1] | IC50 [2] | bioavailability [3] | AUC(0-t) [3] | SMILES
8 | < 500 nM | < 50 nM | 90.9 ± 2.4% | 16000 ± 431 ng·h/mL | CC(C)(C(=O)Nc1ccc(C(F)(F)F)cc1Cl)n1cc(C#CC2CN(c3ccc4c(c3)C(=O)N(C3CCC(=O)NC3=O)C4=O)C2)cn1 (stereo not drawn) [Compound 11, N-(2-chloro-4-(trifluoromethyl)phenyl)-2-(4-((1-(2-(2,6-dioxopiperidin-3-yl)-1,3-dioxoisoindolin-5-yl)azetidin-3-yl)ethynyl)-1H-pyrazol-1-yl)-2-methylpropanamide]
9 | < 500 nM | < 50 nM |  |  | CC(C)(C(=O)Nc1ccc(C(F)(F)F)cc1Br)n1cc(C#CC2CN(c3ccc4c(c3)C(=O)N(C3CCC(=O)NC3=O)C4=O)C2)cn1 (stereo not drawn) [Compound 28, N-(2-bromo-4-(trifluoromethyl)phenyl)-2-(4-((1-(2-(2,6-dioxopiperidin-3-yl)-1,3-dioxoisoindolin-5-yl)azetidin-3-yl)ethynyl)-1H-pyrazol-1-yl)-2-methylpropanamide]
10 | < 500 nM | < 50 nM | 98.1 ± 6.6% | 22500 ± 1510 ng·h/mL | CC(C)(C(=O)Nc1ccc(C(F)(F)F)cc1C1CC1)n1cc(C#CC2CN(c3ccc4c(c3)C(=O)N(C3CCC(=O)NC3=O)C4=O)C2)cn1 (stereo not drawn) [Compound 30, N-(2-cyclopropyl-4-(trifluoromethyl)phenyl)-2-(4-((1-(2-(2,6-dioxopiperidin-3-yl)-1,3-dioxoisoindolin-5-yl)azetidin-3-yl)ethynyl)-1H-pyrazol-1-yl)-2-methylpropanamide]
11 | < 500 nM | < 50 nM |  |  | CC(C)(C(=O)Nc1ccc(C#N)c2c1CCCC2)n1cc(C#CC2CN(c3ccc4c(c3)C(=O)N(C3CCC(=O)NC3=O)C4=O)C2)cn1 (stereo not drawn) [Compound 56, N-(4-cyano-5,6,7,8-tetrahydronaphthalen-1-yl)-2-(4-((1-(2-(2,6-dioxopiperidin-3-yl)-1,3-dioxoisoindolin-5-yl)azetidin-3-yl)ethynyl)-1H-pyrazol-1-yl)-2-methylpropanamide]
12 | < 500 nM | < 50 nM | 52.4 ± 3.1% | 14000 ± 816 ng·h/mL | CC#Cc1cc(C(F)(F)F)ccc1NC(=O)C(C)(C)n1cc(C#CC2CN(c3ccc4c(c3)C(=O)N(C3CCC(=O)NC3=O)C4=O)C2)cn1 (stereo not drawn) [Compound 118, 2-(4-((1-(2-(2,6-dioxopiperidin-3-yl)-1,3-dioxoisoindolin-5-yl)azetidin-3-yl)ethynyl)-1H-pyrazol-1-yl)-2-methyl-N-(2-(prop-1-yn-1-yl)-4-(trifluoromethyl)phenyl) propanamide]
13 | < 500 nM | < 50 nM | 37.9 ± 2.2% | 12000 ± 711 ng·h/mL | CC(C)(C(=O)Nc1ccc(C(F)(F)F)cc1-c1nccs1)n1cc(C#CC2CN(c3ccc4c(c3)C(=O)N(C3CCC(=O)NC3=O)C4=O)C2)cn1 (stereo not drawn) [Compound 155, 2-(4-((1-(2-(2,6-dioxopiperidin-3-yl)-1,3-dioxoisoindolin-5-yl)azetidin-3-yl)ethynyl)-1H-pyrazol-1-yl)-2-methyl-N-(2-(thiazol-2-yl)-4-(trifluoromethyl)phenyl) propanamide]
